“And” between values parts separate entries of the source, which are not always exact repeats. Equal values may be shown once. Toxic doses and inconclusive results are not listed. Cut-off read from the data, not from the text of the source: active = T/C of 150% or more; inactive = T/C below 125%.
Test system: L1210 leukemia ip in BDF1 mice, survival T/C
Assay: NCI In Vivo Anticancer Drug Screen. Data for tumor model L1210 Leukemia (intraperitoneal) in B6D2F1 (BDF1) mice
Details: endpoint: mean survival time, higher = longer survival
Outline: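 Value reflects the ratio of survival in compound-treated mice to survival in vehicle-treated controls, with both groups carrying the same transplanted tumor.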

[1] = dose: 100.0 mg/kg/injection, schedule: Q04DX003 (ip), vehicle: Klucel (hydroxypropylcellulose) (HPC)
[2] = dose: 200.0 mg/kg/injection, schedule: Q04DX003 (ip), vehicle: Klucel (hydroxypropylcellulose) (HPC)
[3] = dose: 50.0 mg/kg/injection, schedule: Q01DX009 (ip), vehicle: saline
[4] = dose: 100.0 mg/kg/injection, schedule: Q01DX001 (ip), vehicle: saline
[5] = dose: 200.0 mg/kg/injection, schedule: Q01DX001 (ip), vehicle: saline
[6] = dose: 200.0 mg/kg/injection, schedule: Q01DX009 (ip), vehicle: saline
[7] = dose: 100.0 mg/kg/injection, schedule: Q01DX009 (ip), vehicle: Klucel (hydroxypropylcellulose) (HPC)
[8] = dose: 100.0 mg/kg/injection, schedule: Q04DX002 (ip), vehicle: Klucel (hydroxypropylcellulose) (HPC)
[9] = dose: 200.0 mg/kg/injection, schedule: Q01DX009 (ip), vehicle: Klucel (hydroxypropylcellulose) (HPC)
[10] = dose: 200.0 mg/kg/injection, schedule: Q04DX002 (ip), vehicle: Klucel (hydroxypropylcellulose) (HPC)
[11] = dose: 400.0 mg/kg/injection, schedule: Q04DX002 (ip), vehicle: Klucel (hydroxypropylcellulose) (HPC)
[12] = dose: 400.0 mg/kg/injection, schedule: Q01DX001 (ip), vehicle: saline
[13] = dose: 50.0 mg/kg/injection, schedule: Q01DX009 (ip), vehicle: saline with Tween-80
[14] = dose: 100.0 mg/kg/injection, schedule: Q01DX009 (ip), vehicle: saline with Tween-80
[15] = dose: 200.0 mg/kg/injection, schedule: Q01DX009 (ip), vehicle: saline with Tween-80
[16] = dose: 100.0 mg/kg/injection, schedule: Q04DX002 (ip), vehicle: saline
[17] = dose: 100.0 mg/kg/injection, schedule: Q04DX002 (ip), vehicle: saline with Tween-80
[18] = dose: 200.0 mg/kg/injection, schedule: Q04DX002 (ip), vehicle: saline with Tween-80
[19] = dose: 400.0 mg/kg/injection, schedule: Q01DX009 (ip), vehicle: saline with Tween-80
[20] = dose: 400.0 mg/kg/injection, schedule: Q04DX002 (ip), vehicle: saline with Tween-80
[21] = dose: 400.0 mg/kg/injection, schedule: Q01DX009 (ip), vehicle: Klucel (hydroxypropylcellulose) (HPC)
[22] = dose: 50.0 mg/kg/injection, schedule: Q04DX002 (ip), vehicle: Klucel (hydroxypropylcellulose) (HPC)
[23] = dose: 100.0 mg/kg/injection, schedule: Q01DX009 (ip), vehicle: carboxymethylcellulose (CMC)

Measured: T/C

O=C(O)c1ccc(C(Cl)(Cl)Cl)cc1
inactive: dose: 50.0 mg/kg/injection, schedule: Q01DX009 (ip), vehicle: saline sonified 96 % of control | dose: 100.0 mg/kg/injection, schedule: Q01DX009 (ip), vehicle: saline sonified 115 % of control | [1] 102 % of control | dose: 200.0 mg/kg/injection, schedule: Q01DX009 (ip), vehicle: saline sonified 118 % of control | [2] 94 % of control

C=CCOC(=O)C(C)O (stereo unspecified)
inactive: [3] 98 % of control | [4] 105 % of control | dose: 100.0 mg/kg/injection, schedule: Q01DX009 (ip), vehicle: saline 98 % of control | [5] 105 % of control | [6] 98 % of control

CCc1ccc(C(=O)NN)cc1
inactive: dose: 25.0 mg/kg/injection, schedule: Q01DX009 (ip), vehicle: saline 95 % of control | [3] 105 % of control and 113 % of control | [6] 117 % of control | dose: 400.0 mg/kg/injection, schedule: Q01DX009 (ip), vehicle: saline 123 % of control

CC(C)(C)c1cc(/C=N/n2c(-c3ccccc3)nc3ccccc3c2=O)cc(C(C)(C)C)c1O
inactive: dose: 100.0 mg/kg/injection, schedule: Q01DX001 (ip), vehicle: Klucel (hydroxypropylcellulose) (HPC) 89 % of control | [7] 89 % of control and 91 % of control | [8] 95 % of control | dose: 200.0 mg/kg/injection, schedule: Q01DX001 (ip), vehicle: Klucel (hydroxypropylcellulose) (HPC) 89 % of control | [9] 95 % of control and 91 % of control | [10] 98 % of control | dose: 400.0 mg/kg/injection, schedule: Q01DX001 (ip), vehicle: Klucel (hydroxypropylcellulose) (HPC) 93 % of control | [11] 97 % of control and 100 % of control

O=C(NCCCCC(NC(=O)OCc1ccccc1)C(=O)NCCCCCCNCCCCCCNC(=O)C(CCCCNC(=O)OCc1ccccc1)NC(=O)OCc1ccccc1)OCc1ccccc1 (stereo unspecified)
inactive: [4] 94 % of control | [5] 92 % of control | [12] 96 % of control

COc1cc(N(CCC#N)CCC#N)nc(OC)n1
inactive: [13] 96 % of control | [14] 92 % of control | [15] 92 % of control

Cc1cc(C)c2ccc(N)nc2n1
inactive: dose: 9.5 mg/kg/injection, schedule: Q01DX001 (ip), vehicle: saline 86 % of control | dose: 19.0 mg/kg/injection, schedule: Q01DX001 (ip), vehicle: saline 91 % of control | dose: 38.0 mg/kg/injection, schedule: Q01DX001 (ip), vehicle: saline 101 % of control

CCN(CC)CCOC(=O)C(O)(c1ccccc1)c1ccccc1
inactive: dose: 25.0 mg/kg/injection, schedule: Q04DX002 (ip), vehicle: saline 101 % of control | dose: 50.0 mg/kg/injection, schedule: Q04DX002 (ip), vehicle: saline 93 % of control | [16] 93 % of control and 115 % of control

Cc1ccc(Cl)cc1NC(=O)Nc1cc(C(C)C)ccc1C
inactive: [14] 93 % of control and 100 % of control | [17] 100 % of control and 90 % of control | [15] 93 % of control and 91 % of control | [18] 93 % of control and 94 % of control | [19] 86 % of control | [20] 96 % of control and 101 % of control

O=C(CCCCCCCCC(=O)Nc1ccccc1F)Nc1ccccc1F
inactive: [7] 101 % of control | [9] 102 % of control | [21] 101 % of control

O=C(CNC(=O)Nc1nccs1)NNC(=O)Nc1cccc(C(F)(F)F)c1
inactive: [13] 94 % of control | [14] 105 % of control | [15] 102 % of control

O=[N+]([O-])c1ccc(N/N=C/C#Cc2ccccc2)c([N+](=O)[O-])c1
inactive: dose: 50.0 mg/kg/injection, schedule: Q04DX002 (ip), vehicle: saline with Tween-80 88 % of control

O=C(O)C1C2OC3C(OC(=O)C31)C2Br (stereo unspecified)
inactive: [22] 107 % of control | [7] 89 % of control | [8] 104 % of control | [1] 101 % of control | [9] 91 % of control | [10] 100 % of control | [2] 92 % of control | [21] 88 % of control | [11] 96 % of control | dose: 400.0 mg/kg/injection, schedule: Q04DX003 (ip), vehicle: Klucel (hydroxypropylcellulose) (HPC) 93 % of control

CC1OC(O)C(N)C(O)C1O (stereo unspecified)
inactive: [4] 107 % of control | [5] 106 % of control | [12] 106 % of control

Oc1ccc(-c2cc3c(O)ccc(O)c3[nH]2)cc1
inactive: [22] 96 % of control | [8] 105 % of control | [10] 102 % of control

COc1ccccc1N=Nc1c(O)n(-c2ccccc2)c(=S)n(-c2ccccc2)c1=O
inactive: dose: 100.0 mg/kg/injection, schedule: Q01DX001 (ip), vehicle: saline with Tween-80 106 % of control | dose: 200.0 mg/kg/injection, schedule: Q01DX001 (ip), vehicle: saline with Tween-80 95 % of control | dose: 400.0 mg/kg/injection, schedule: Q01DX001 (ip), vehicle: saline with Tween-80 94 % of control

CNC(=O)Oc1cccc(NC(=O)OC(C)C)c1
inactive: [14] 97 % of control | [15] 98 % of control | [19] 92 % of control

CCCCCCCCC(=O)N(C(C)C)C(C)C
inactive: [23] 93 % of control and 102 % of control | dose: 100.0 mg/kg/injection, schedule: Q04DX002 (ip), vehicle: carboxymethylcellulose (CMC) 98 % of control and 101 % of control | dose: 200.0 mg/kg/injection, schedule: Q01DX009 (ip), vehicle: carboxymethylcellulose (CMC) 93 % of control and 96 % of control | dose: 200.0 mg/kg/injection, schedule: Q04DX002 (ip), vehicle: carboxymethylcellulose (CMC) 95 % of control and 92 % of control | dose: 400.0 mg/kg/injection, schedule: Q01DX009 (ip), vehicle: carboxymethylcellulose (CMC) 92 % of control | dose: 400.0 mg/kg/injection, schedule: Q04DX002 (ip), vehicle: carboxymethylcellulose (CMC) 87 % of control and 92 % of control

CCCCOP(=O)(/C=C\c1ccco1)OCCCC
inactive: dose: 25.0 mg/kg/injection, schedule: Q01DX009 (ip), vehicle: Klucel (hydroxypropylcellulose) (HPC) 91 % of control | dose: 50.0 mg/kg/injection, schedule: Q01DX009 (ip), vehicle: Klucel (hydroxypropylcellulose) (HPC) 97 % of control | [7] 92 % of control | [23] 95 % of control

CCCC[S][Sn-]([CH2]CCC)([CH2]CCC)[CH2]CCC
inactive: dose: 6.25 mg/kg/injection, schedule: Q04DX003 (ip), vehicle: saline with Tween-80 101 % of control | dose: 12.5 mg/kg/injection, schedule: Q04DX003 (ip), vehicle: saline with Tween-80 109 % of control | dose: 25.0 mg/kg/injection, schedule: Q04DX002 (ip), vehicle: saline with Tween-80 93 % of control | dose: 25.0 mg/kg/injection, schedule: Q04DX003 (ip), vehicle: saline with Tween-80 98 % of control

CC(C)(C)S(=O)CCO (stereo unspecified)
inactive: [16] 109 % of control | dose: 200.0 mg/kg/injection, schedule: Q04DX002 (ip), vehicle: saline 103 % of control | dose: 400.0 mg/kg/injection, schedule: Q04DX002 (ip), vehicle: saline 103 % of control

O[Si](O)(c1ccccc1)c1ccccc1
inactive: [17] 92 % of control | [18] 87 % of control | [20] 92 % of control

CCOC(=O)C(Cc1c[nH]c2ccccc12)(NC(C)=O)C(=O)OCC
inactive: [14] 88 % of control | [15] 90 % of control | [19] 94 % of control

CCN(CC)CCCOC(=O)N(Cc1ccc(Cl)cc1)C1CC1
inactive: dose: 25.0 mg/kg/injection, schedule: Q01DX009 (ip), vehicle: saline with Tween-80 100 % of control | [13] 93 % of control | dose: 100.0 mg/kg/injection, schedule: Q04DX003 (ip), vehicle: saline with Tween-80 102 % of control

Cc1cc2c3ccccc3[nH]c(=O)n2n1
inactive: [14] 96 % of control | dose: 100.0 mg/kg/injection, schedule: Q04DX003 (ip), vehicle: saline 100 % of control | [15] 95 % of control | dose: 200.0 mg/kg/injection, schedule: Q04DX003 (ip), vehicle: saline 96 % of control | [19] 86 % of control | dose: 400.0 mg/kg/injection, schedule: Q04DX003 (ip), vehicle: saline 87 % of control

Source: PubChem BioAssay AID248 (DTP/NCI, 2004)
